Assay results: US20220409590A1, “CHEMOTHERAPY FOR GLIOMA THROUGH NEURONAL CONVERSION” (The Penn State Research Foundation, priority 2019, published 2022)

System: U251 cells
Experiment: Reprogramming of U251 cells; doublecortin immunostaining
Type: cell-based, human
Method: U251 cells were maintained in minimal essential media (MEM) supplemented with 2 mM glutamine, 1% non-essential amino acids, 1 mM sodium pyruvate, and 10% fetal bovine serum. Fifty thousand cells were seeded on to coverslips into 24-well plates. After 4 days in MEM, the cells were treated with the compound cocktail or dimethyl sulfoxide for another 4 days in Ham's F-12 (F-12) media supplemented with N2, B27 and insulin. The five-compound cocktail, referred to as described above as SLCDS, contained 5 μM SB431542, 0.25 μM LDN193189, 5 μM CHIR99021, 5 μM DAPT, and 40 μM SKL2001. After SLCDS treatment, F-12 media was changed every 4 days for 12 days. Cells were then crosslinked with 4% paraformaldehyde for 12 minutes and washed with Tris buffered saline (TBS). After three 5-minute washes, cells were blocked with 2.5% bovine serum albumin in Tris-buffered saline (TBS) with 0.1% Triton X-100 (TBSTx) for 1 hour. Primary antibody (goat Doublecortin, 1:500 dilution, sc-8066, Santa Cruz) were incubated with fixed cells overnight at 4° C. After three 5-minute washes, the secondary antibody (anti-goat Cy5, 1:1000) was incubated with fixed cells overnight at 4° C. After three 5-minute washes, the cover slip was mounted using mounting media. The fluorescent signal was detected using an ECHO Revolve microscope.

O=C(NCCCn1ccnc1)c1cc(-c2ccco2)on1 [SKL2001]
dose response of doublecortin expression (SKL2001 in combination with SB431542, LDN193189, CHIR99021 and DAPT in U251 cells, FIG. 2): dose-response relationship is established
conversion of U251 glioblastoma cells to neuronal cells (as evidenced by doublecortin expression): efficient conversion
